Results reported in publication PMC9897768, “Discovery of new 6-ureido/amidocoumarins as highly potent and selective inhibitors for the tumour-relevant carbonic anhydrases IX and XII” (Journal of Enzyme Inhibition and Medicinal Chemistry, 2023).

What was measured:
hCA I = hCA I (Homo sapiens, UniProt P00915); test: stopped-flow CO2 hydrase assay, hCA I; type: biochemical; conditions: incubation time 6 h, mean of three experiments
Protocol: (§1) The target coumarins 5a–p and 7a–c were examined for their CA inhibitory actions towards the ubiquitous CA I and II (cytosolic) as well as the tumour-associated CA IX and XII isozymes by the use of a stopped-flow CO2 hydrase assay, using acetazolamide (AZA) as a reference compound.
(§2) The experimental procedures utilised for CA inhibitory assay of the target compounds were carried out as described earlier, and presented in the Supplementary Materials.

hCA II = hCA II (Homo sapiens, UniProt P00918); test: stopped-flow CO2 hydrase assay, hCA II; type: biochemical; conditions: incubation time 6 h, mean of three experiments
Protocol: as §1, §2

hCA IX = hCA IX (Homo sapiens, UniProt Q16790); test: stopped-flow CO2 hydrase assay, hCA IX; type: biochemical; conditions: incubation time 6 h, mean of three experiments
Protocol: as §1, §2

hCA XII = hCA XII (Homo sapiens, UniProt O43570); test: stopped-flow CO2 hydrase assay, hCA XII; type: biochemical; conditions: incubation time 6 h, mean of three experiments
Protocol: as §1, §2

HCT-116 cells = test: MTT antiproliferative assay, HCT-116; type: cell-based, human; conditions: mean ± SEM of three experiments; for inhibition at 10 µM / inhibition at 100 µM: Homo sapiens; for inhibition at 10 µM: HCT-116, HCT116, 10 µM, read-out: % Growth inhibition HCT116 10 µM; for inhibition at 100 µM: HCT-116, HCT116, 100 µM, read-out: % Growth inhibition HCT116 100 µM
Protocol: (§3) Encouraged by the favourable selectivity profile of ureidocoumarins 5a–p and amidocoumarins 7a–c towards hCA IX and hCA XII, they were further examined for their prospective antiproliferative activity against human colorectal (HCT-116) and breast (MCF-7) cancer cell lines, adopting the MTT assay.
(§4) The evaluation of anticancer activity of the target compounds was conducted by MTT assay adopting the literature procedure.

MCF-7 cells = test: MTT antiproliferative assay, MCF-7; type: cell-based, human; conditions: mean ± SEM of three experiments; for inhibition at 10 µM / inhibition at 100 µM: Homo sapiens; for inhibition at 10 µM: MCF7, MCF7, 10 µM, read-out: % Growth inhibition MCF7 10 µM; for inhibition at 100 µM: MCF7, MCF7, 100 µM, read-out: % Growth inhibition MCF7 100 µM
Protocol: as §3, §4

Sequence of hCA I (P00915 whole entry): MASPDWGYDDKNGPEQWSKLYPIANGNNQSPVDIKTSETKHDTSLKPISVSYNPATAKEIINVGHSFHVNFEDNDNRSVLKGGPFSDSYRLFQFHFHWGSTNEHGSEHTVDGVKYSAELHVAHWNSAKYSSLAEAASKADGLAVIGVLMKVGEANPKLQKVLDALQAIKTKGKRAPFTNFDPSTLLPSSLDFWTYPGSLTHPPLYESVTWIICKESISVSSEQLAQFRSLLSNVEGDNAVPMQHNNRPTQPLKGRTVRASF
Sequence of hCA XII (O43570 25-354): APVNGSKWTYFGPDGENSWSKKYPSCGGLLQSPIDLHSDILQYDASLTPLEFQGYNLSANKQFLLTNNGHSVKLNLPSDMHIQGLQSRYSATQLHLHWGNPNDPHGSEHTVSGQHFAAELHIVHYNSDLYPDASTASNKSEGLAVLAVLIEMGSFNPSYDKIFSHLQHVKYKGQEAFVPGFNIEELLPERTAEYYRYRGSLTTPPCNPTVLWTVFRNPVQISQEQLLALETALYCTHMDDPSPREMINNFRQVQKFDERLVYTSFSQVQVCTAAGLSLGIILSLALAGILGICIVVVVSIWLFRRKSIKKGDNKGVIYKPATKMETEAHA

| SMILES | Ki (hCA I) | Ki (hCA II) | Ki (hCA IX) | Ki (hCA XII) | inhibition at 10 µM (HCT-116 cells) | inhibition at 100 µM (HCT-116 cells) | inhibition at 10 µM (MCF-7 cells) | inhibition at 100 µM (MCF-7 cells) | melting point | % Growth inhibition HCT116 10 µM (HCT-116 cells; HCT116, 10 µM) | % Growth inhibition HCT116 100 µM (HCT-116 cells; HCT116, 100 µM) | % Growth inhibition MCF7 10 µM (MCF-7 cells; MCF7, 10 µM) | % Growth inhibition MCF7 100 µM (MCF-7 cells; MCF7, 100 µM) |
| --- | --- | --- | --- | --- | --- | --- | --- | --- | --- | --- | --- | --- | --- |
| O=C(Nc1ccc(C(F)(F)F)cc1)Nc1ccc2oc(=O)ccc2c1 [Compound 5b] | > 100000 nM | > 100000 nM | 71.4 nM | 38.5 nM | 7.6 ± 2.8% | 77 ± 4% | 4.2 ± 1.4% | 77.8 ± 5.1% | 276 to 278 °C | – | – | – | – |
| CCCCOc1ccc(NC(=O)Nc2ccc3oc(=O)ccc3c2)cc1 [Compound 5f, 1-(4-Butoxyphenyl)-3-(2-oxo-2H-chromen-6-yl)urea] | > 100000 nM | > 100000 nM | 32.5 nM | 81.8 nM | 15 ± 5.2% | 67.7 ± 0.6% | 32.3 ± 2.6% | 46.9 ± 3.4% | 234 to 235 °C | – | – | – | – |
| O=C(Nc1cc(C(F)(F)F)cc(C(F)(F)F)c1)Nc1ccc2oc(=O)ccc2c1 [Compound 5i, 1-(3,5-Bis(trifluoromethyl)phenyl)-3-(2-oxo-2H-chromen-6-yl)urea] | > 100000 nM | > 100000 nM | 14.7 nM | 5.9 nM | – | > 90% | > 50% | > 90% | – | 70.4 ± 2.6% | 94.2 ± 1.1% | 51.5 ± 3.1% | 93.9 ± 0.4% |
| O=C(Nc1ccc2oc(=O)ccc2c1)c1cc(F)cc(F)c1 [Compound 7c, 3,5-Difluoro-N-(2-oxo-2H-chromen-6-yl)benzamide] | > 100000 nM | > 100000 nM | 61 nM | 40.5 nM | 21.8 ± 3% | 52 ± 5.1% | 21.1 ± 3.3% | 21.4 ± 4.7% | 301 to 303 °C | – | – | – | – |
| O=C(Nc1ccc2oc(=O)ccc2c1)Nc1ccc(Cl)cc1Cl [Compound 5l, 1-(2,4-Dichlorophenyl)-3-(2-oxo-2H-chromen-6-yl)urea] | > 100000 nM | > 100000 nM | 50.6 nM | 56.7 nM | 2.6 ± 1.8% | 6.7 ± 1.7% | 5.9 ± 2.7% | 6.6 ± 2.5% | 291 to 292 °C | – | – | – | – |
| O=C(Nc1ccc(Br)cc1)Nc1ccc2oc(=O)ccc2c1 [Compound 5d, 1-(4-Bromophenyl)-3-(2-oxo-2H-chromen-6-yl)urea] | > 100000 nM | > 100000 nM | 70.6 nM | 51.1 nM | 25.4 ± 2.7% | 31.7 ± 3.5% | 18.2 ± 3.2% | 18.5 ± 4.5% | 257 to 258 °C | – | – | – | – |
| O=C(Nc1ccc(Cl)c(C(F)(F)F)c1)Nc1ccc2oc(=O)ccc2c1 [Compound 5g, 1-(4-Chloro-3-(trifluoromethyl)phenyl)-3-(2-oxo-2H-chromen-6-yl)urea] | > 100000 nM | > 100000 nM | 66.4 nM | 29.4 nM | 15.2 ± 4.4% | 90.5 ± 1.4% | 10 ± 2.4% | 92.3 ± 0.6% | 253 to 255 °C | – | – | – | – |
| CCCCc1ccc(NC(=O)Nc2ccc3oc(=O)ccc3c2)cc1 [Compound 5e, 1-(4-Butylphenyl)-3-(2-oxo-2H-chromen-6-yl)urea] | > 100000 nM | > 100000 nM | 54.7 nM | 95.1 nM | 20.1 ± 2.5% | 65 ± 6% | 38.2 ± 2.5% | 46.4 ± 4.9% | 223 to 224 °C | – | – | – | – |
| O=C(Nc1cccc(C(F)(F)F)c1)Nc1ccc2oc(=O)ccc2c1 [Compound 5a, 1-(2-Oxo-2H-chromen-6-yl)-3-(3-(trifluoromethyl)phenyl)urea] | > 100000 nM | > 100000 nM | 45.9 nM | 26.2 nM | 8 ± 4.8% | 21.9 ± 4.6% | 3.7 ± 1.9% | 34.7 ± 4.4% | 252 to 254 °C | – | – | – | – |
| O=C(Nc1cc(Cl)cc(Cl)c1)Nc1ccc2oc(=O)ccc2c1 [Compound 5j, 1-(3,5-Dichlorophenyl)-3-(2-oxo-2H-chromen-6-yl)urea] | > 100000 nM | > 100000 nM | 19.9 nM | 23.4 nM | 19.2 ± 3.8% | 91.9 ± 1.1% | 6.1 ± 2% | 91.1 ± 0.6% | 252 to 253 °C | – | – | – | – |
| Cc1cccc(Cl)c1NC(=O)Nc1ccc2oc(=O)ccc2c1 [Compound 5o, 1-(2-Chloro-6-methylphenyl)-3-(2-oxo-2H-chromen-6-yl)urea] | > 100000 nM | > 100000 nM | 19.2 nM | 13.8 nM | 9.7 ± 4% | 78.6 ± 3.7% | 30.3 ± 1.5% | 72.8 ± 5.5% | – | – | – | – | – |
| Cc1cc(C)cc(NC(=O)Nc2ccc3oc(=O)ccc3c2)c1 [Compound 5k, 1-(3,5-Dimethylphenyl)-3-(2-oxo-2H-chromen-6-yl)urea] | > 100000 nM | > 100000 nM | 42.9 nM | 27.4 nM | 14.5 ± 2.7% | 87.4 ± 1.8% | 33.2 ± 3.2% | 66.7 ± 5% | 238 to 239 °C | – | – | – | – |
| O=C(Nc1ccc2oc(=O)ccc2c1)Nc1ccc(F)cc1F [Compound 5m, 1-(2,4-Difluorophenyl)-3-(2-oxo-2H-chromen-6-yl)urea] | > 100000 nM | > 100000 nM | 25.6 nM | 7.2 nM | 25.7 ± 2.3% | 26.1 ± 4% | 15.2 ± 1.4% | 22.7 ± 3.3% | – | – | – | – | – |
| Cc1cc(Cl)ccc1NC(=O)Nc1ccc2oc(=O)ccc2c1 [Compound 5n, 1-(4-Chloro-2-methylphenyl)-3-(2-oxo-2H-chromen-6-yl)urea] | > 100000 nM | > 100000 nM | 28.4 nM | 43.1 nM | 4.9 ± 2.5% | 20.5 ± 3.5% | 16.7 ± 4.9% | 19.9 ± 1.2% | – | – | – | – | – |
| O=C(Nc1ccc2oc(=O)ccc2c1)Nc1c(Br)cc(F)cc1Br [Compound 5p, 1-(2,6-Dibromo-4-fluorophenyl)-3-(2-oxo-2H-chromen-6-yl)urea] | > 100000 nM | > 100000 nM | 72.8 nM | 50.4 nM | 14.1 ± 3% | 75.2 ± 5.8% | 21.4 ± 3% | 79.5 ± 2.4% | – | – | – | – | – |
| O=C(Nc1ccc2oc(=O)ccc2c1)c1ccc(Cl)c(C(F)(F)F)c1 [Compound 7a, 4-Chloro-N-(2-oxo-2H-chromen-6-yl)-3-(trifluoromethyl)benzamide] | > 100000 nM | > 100000 nM | 82.4 nM | 42.8 nM | 14 ± 2.4% | 42.2 ± 2.5% | 9.9 ± 3.4% | 19 ± 2.1% | 272 to 273 °C | – | – | – | – |
| O=C(Nc1ccc(F)cc1)Nc1ccc2oc(=O)ccc2c1 [Compound 5c, 1-(4-Fluorophenyl)-3-(2-oxo-2H-chromen-6-yl)urea] | > 100000 nM | > 100000 nM | 41.5 nM | 40.2 nM | 10.9 ± 1.6% | 31.3 ± 4.6% | 9.5 ± 4.2% | 13.5 ± 4.3% | 249 to 250 °C | – | – | – | – |
| O=C(Nc1ccc(F)c(Cl)c1)Nc1ccc2oc(=O)ccc2c1 [Compound 5h, 1-(3-Chloro-4-fluorophenyl)-3-(2-oxo-2H-chromen-6-yl)urea] | > 100000 nM | > 100000 nM | 24.1 nM | 10.3 nM | 11.9 ± 1.5% | 92.3 ± 1.2% | 16.9 ± 5.3% | 91.2 ± 1% | 232 to 233 °C | – | – | – | – |
| O=C(Nc1ccc2oc(=O)ccc2c1)c1cc(C(F)(F)F)cc(C(F)(F)F)c1 [Compound 7b, N-(2-Oxo-2H-chromen-6-yl)-3,5-bis(trifluoromethyl)benzamide] | > 100000 nM | > 100000 nM | 55.6 nM | 37.5 nM | 19.6 ± 2.4% | 76 ± 2.5% | 11.3 ± 4% | 62.9 ± 6.4% | 240 to 241 °C | – | – | – | – |
